Measurements as given in the supplement of paper PMC10307832.

Tests used:
Assay in all cases: relative viability (nuclei count vs DMSO), 5 days (fraction); higher = more cells survive
[1] = compound: CC1CC(=O)N(C2=CN=C(N=C2N1C3CCCC3)NC4=C(C=C(C=C4)C(=O)NC5CCN(CC5)C)OC)C [NPK76-II-72-1] + C[C@@H](Oc1cc(-c2cnn(C3CCNCC3)c2)cnc1N)c1c(Cl)ccc(F)c1Cl [Crizotinib] (partner 1 µM)
Method in brief: (§1)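 Lung cancer cell lines, seeded in 1536-well plates, were treated the following day by pin tool with a single drug or with five library-drug doses (not always all listed) in √10 steps on top of a fixed anchor-drug dose. Cells were fixed and nuclei stained in one step after 5 days, and nuclei were counted. Relative viability is the nuclei count for treated wells divided by that for vehicle wells, reported as medians of duplicate plates.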

[2] = compound: CC1CC(=O)N(C2=CN=C(N=C2N1C3CCCC3)NC4=C(C=C(C=C4)C(=O)NC5CCN(CC5)C)OC)C [NPK76-II-72-1] + C[C@]1(O)C[C@@H](c2nc(-c3ccc4ccc(-c5ccccc5)nc4c3)c3c(N)nccn32)C1 [Linsitinib] (partner 1 µM)
Method in brief: as §1

[3] = compound: CC[C@@H]1C(=O)N(C)c2cnc(Nc3ccc(C(=O)NC4CCN(C)CC4)cc3OC)nc2N1C1CCCC1 [BI-2536] + Nc1ncn([C@H]2C[C@H](O)[C@@H](CO)O2)c(=O)n1 [Decitabine] (partner 2 µM)
Method in brief: as §1

[4] = compound: CC[C@@H]1C(=O)N(C)c2cnc(Nc3ccc(C(=O)NC4CCN(C)CC4)cc3OC)nc2N1C1CCCC1 [BI-2536] + CC(=O)c1c(C)c2cnc(Nc3ccc(N4CCNCC4)cn3)nc2n(C2CCCC2)c1=O [Palbociclib] (partner 0.5 µM)
Method in brief: as §1

Cell Line	relative viability ([1]; first compound 0.01 µM)	relative viability ([1]; first compound 0.03162 µM)	relative viability ([1]; first compound 0.1 µM)	relative viability ([1]; first compound 0.3162 µM)	relative viability ([1]; first compound 1 µM)	relative viability ([2]; first compound 0.01 µM)	relative viability ([2]; first compound 0.03162 µM)	relative viability ([2]; first compound 0.1 µM)	relative viability ([2]; first compound 0.3162 µM)	relative viability ([2]; first compound 1 µM)	relative viability ([3]; first compound 0.01 µM)	relative viability ([3]; first compound 0.03162 µM)	relative viability ([3]; first compound 0.1 µM)	relative viability ([3]; first compound 0.3162 µM)	relative viability ([3]; first compound 1 µM)	relative viability ([4]; first compound 0.01 µM)	relative viability ([4]; first compound 0.03162 µM)	relative viability ([4]; first compound 0.1 µM)	relative viability ([4]; first compound 0.3162 µM)	relative viability ([4]; first compound 1 µM)
NCI-H1703	0.525	0.754	0.774	0.641	0.628	0.428	0.65	0.621	0.645	0.996										
NCI-H1793						0.771	0.962	0.971	0.495	0.742	0.419	0.509	0.236	0.198	0.145	0.328	0.34	0.276	0.168	0.154
NCI-H2170	1.08	1.18	1.11		1.3						0.466	0.471	0.431	0.167	0.181	0.379	0.437	0.363	0.155	0.16
NCI-H2228	0.404	0.611	0.48	0.39	0.711	0.428	0.572	0.763	0.66	0.736						0.749	0.618	0.232	0.157	0.111
NCI-H2342												0.732	0.637	0.514	0.433		0.553	0.542	0.394	0.397
SW 900											0.433	0.458	0.384	0.28	0.203	0.549	0.487	0.471	0.313	0.219
